# Test results from patent US7687651B2, “Method for the preparation of trans-or cis-diammoniumdichlorodihydroxoplatinum(IV) and the use thereof in the production of pharmaceutical active substances” (priority 2003, dated 2010).
# Values joined by “and” are separate entries in the source; they are usually repeats but may differ in a detail not shown here. Equal entries are not always repeated.
# Assays:
# Assay type in all cases: cell-based, human
# U-87-MG Astrocytoma = assay: Cytotoxic activity of trans-oxoplatin, U-87-MG
# Procedure: (§1) trans-Oxoplatin was tested on a panel of cell lines, using double steps and an initial concentration of 40 μg/ml. As the IC50 values were not reached in most cases, cell survival at the highest concentration is indicated.
# ASTRO Astrocytoma = assay: Cytotoxic activity of trans-oxoplatin, ASTRO
# Procedure: as §1
# SW620 Colon carcinoma = assay: Cytotoxic activity of trans-oxoplatin, SW620; conditions: SW 620 colon carcinoma cell line
# Procedure: as §1
# MDA-MB-231 Breast cancer = assay: Cytotoxic activity of trans-oxoplatin, MDA-MB-231; conditions: several values given
# Procedure: as §1
# G-292 Osteosarcoma = assay: Cytotoxic activity of trans-oxoplatin, G-292; conditions: G-292 osteosarcoma cell line
# Procedure: as §1
# Panc1 Pancreatic cancer [1] = assay: Cytotoxic activity of trans-oxoplatin, PANC1
# Procedure: as §1
# CRO1A Carcinoid = assay: Cytotoxic activity of trans-oxoplatin, CRO1A; conditions: several values given
# Procedure: as §1
# [2] = test system: MiaPaCa2 Pancreatic cancer; assay: Cytotoxic activity of trans-oxoplatin, MIAPaCa2; conditions: several values given
# Procedure: as §1
# Fib3 Fibroblasts = assay: Cytotoxic activity of trans-oxoplatin, Fib3
# Procedure: as §1
# K562 Leukemia = assay: Cytotoxic activity of trans-oxoplatin, K562
# Procedure: as §1
# [3] = test system: WI-38 Embryonic lung fibroblasts; assay: Cytotoxic activity of trans-oxoplatin, WI-38
# Procedure: as §1
# COLO 205 Colon carcinoma = assay: Cytotoxic activity of trans-oxoplatin, COLO 205
# Procedure: as §1
# HCT-15 Colon carcinoma [4] = assay: Cytotoxic activity of trans-oxoplatin, HCT-15
# Procedure: as §1
# T-47D breast cancer = assay: Cytotoxic activity of trans-oxoplatin, T-47D
# Procedure: as §1
# HL-60 Leukemia = assay: Cytotoxic activity of trans-oxoplatin, HL-60
# Procedure: as §1
# HOS Osteosarcoma [5] = assay: Cytotoxic activity of trans-oxoplatin, HOS
# Procedure: as §1
# ACHN Renal carcinoma = assay: Cytotoxic activity of trans-oxoplatin, ACHN
# Procedure: as §1
# [6] = test system: BxPC3 Pancreatic carcinoma; assay: Cytotoxic activity of trans-oxoplatin, BxPC3
# Procedure: as §1
# HOS Osteosarcoma [7] = assay: Growth inhibition test on HOS cells; conditions: Table 1
# Procedure: (§2) Growth inhibition tests on various human cell lines show the different activities of cisplatin, cis-oxoplatin and oxaliplatin. […] The following Table illustrates the results produced with cisplatin, oxoplatin, carboplatin and oxaliplatin (the values specified are IC50 values in μg/ml, i.e., the concentration where 50% of the cells survive, nd=not determined; res=resistant=non-sensitive or IC50 value cannot be determined at a concentration of up to 40 μg/ml; IC=inhibition concentration).
# SaOS Osteosarcoma = assay: Growth inhibition test on SaOS cells; conditions: Table 1
# Procedure: as §2
# PC3 Prostate = assay: Growth inhibition test on PC3 cells; conditions: for % Survival: PC3 cells; for IC50: PC3 Prostate
# Procedure: as §2
# M607 Melanoma = assay: Growth inhibition test on M607 cells; conditions: Table 1
# Procedure: as §2
# M518 Melanoma = assay: Growth inhibition test on M518 cells; conditions: Table 1
# Procedure: as §2
# Me128 Melanoma = assay: Growth inhibition test on Me128 cells; conditions: Table 1
# Procedure: as §2
# JVSO Melanoma = assay: Growth inhibition test on JVSO cells; conditions: Table 1
# Procedure: as §2
# Panc1 Pancreatic cancer [8] = assay: Growth inhibition test on Panc1 cells; conditions: Table 1
# Procedure: as §2
# BxPC3 Pancreatic cancer = assay: Growth inhibition test on BxPC3 cells
# Procedure: (§3) The effect of cis-oxoplatin Ca and cis-oxoplatin was compared on 10 cell lines (Table 4).
# (§4) (IC50 values specified in μg/ml; the test was performed as a formazan test).
# [9] = test system: MiaPaCa2 Pancreatic cancer; assay: Growth inhibition test on MiaPaCa2 cells; conditions: Table 1
# Procedure: as §2
# HCT8 Colon carcinoma = assay: Growth inhibition test on HCT8 cells; conditions: Table 1
# Procedure: as §2
# HT29 Colon carcinoma = assay: Growth inhibition test on HT29 cells
# Procedure: as §3, §4
# HCT-15 Colon carcinoma [10] = assay: Growth inhibition test on HCT-15 cells; conditions: Table 1
# Procedure: as §2
# A498 Renal cells = assay: Growth inhibition test on A498 cells; conditions: Table 1
# Procedure: as §2
# C320DM Colon carcinoma = assay: Growth inhibition test on C320DM cells; conditions: Table 1
# Procedure: as §2
# Colo205 Colon carcinoma = assay: Growth inhibition test on Colo205 cells
# Procedure: as §3, §4
# CC1227 Colon carcinoma = assay: Growth inhibition test on CC1227 cells; conditions: Table 1
# Procedure: as §2
# MCF-7 Breast cancer = assay: Growth inhibition test on MCF-7 cells; conditions: Table 1
# Procedure: as §2
# T47D Breast cancer = assay: Growth inhibition test on T47D cells
# Procedure: as §3, §4
# SK-OV3 Ovarian cancer = assay: Growth inhibition test on SK-OV3 cells; conditions: Table 2
# Procedure: as §2
# U 373 MG Astrocytoma = assay: Growth inhibition test on U 373 MG cells; conditions: Table 2
# Procedure: as §2
# SK-OV4 Ovarian cancer = assay: Growth inhibition test on SK-OV4 cells; conditions: Table 2; SK-OV4 Ovarian cancer
# Procedure: as §2
# CaCo-2 Colon = assay: Growth inhibition test on CaCo-2 cells; conditions: CaCo-2 Colon
# Procedure: as §3, §4
# CRO2B Carcinoid = assay: Growth inhibition test on CRO2B cells; conditions: CRO2B Carcinoid
# Procedure: as §3, §4
# Du145 Prostate = assay: Growth inhibition test on Du145 cells; conditions: Du145 Prostate
# Procedure: as §3, §4
# SW480 Colon = assay: Growth inhibition test on SW480 cells; conditions: SW480 Colon
# Procedure: as §3, §4
# SIM Sarcoma = assay: Growth inhibition test on SIM cells
# Procedure: as §2
# (§5) What is seen primarily in children are leukemias, neuroblastomas and Ewing's sarcoma/peripheral neuroectodermal tumors (group of the Ewing family of tumors=EFT). The investigated tumor cell lines include three EFTs (EW-7, SIM and KAL), as well as two neuroblastoma cell lines (NB: LAN1 and LAN5; Los Angeles neuroblastoma=LAN) (see Table 3).
# EW-7 (EFT) = assay: Effect on cell lines of typical tumors in children, EW-7; conditions: Table 3
# Excerpt: as §5
# LAN1 (NB) = assay: Effect on cell lines of typical tumors in children, LAN1; conditions: Table 3
# Excerpt: as §5
# LAN5 (NB) = assay: Effect on cell lines of typical tumors in children, LAN5; conditions: Table 3
# Excerpt: as §5
# MDA-MB-435 Breast = assay: Formazan test on MDA-MB-435 cells; conditions: Table 4
# Procedure: as §3, §4
# BT20 Breast = assay: Formazan test on BT20 cells; conditions: Table 4
# Procedure: as §3, §4
# [11] = test system: HT29, SW480, SK-OV4, PC3, SIM, CaCO-2, DU145 and CRO2B cells; assay: Growth inhibition, IC50 over eight cell lines of Table 2; conditions: CaCO-2, DU145, CRO2B
# Procedure: as §2
# The activities differ according to the cell line.
# 10 cell lines (Table 4) = assay: Formazan test, IC50 mean value for all cell lines of Table 4; conditions: mean over the 10 cell lines of Table 4
# Procedure: as §3, §4
structure (smiles),measurement,setting,value
"[NH2][Pt]([NH2])([OH])([OH])([Cl])[Cl] [TRAXO, trans-Oxoplatin]",% Survival with 40 μg/ml TRAXO,U-87-MG Astrocytoma,100%
same,% Survival with TRAXO (20 μg/ml indicated),ASTRO Astrocytoma; 20 μg/ml,82%
same,% Survival with 40 μg/ml TRAXO,ASTRO Astrocytoma; 40 μg/ml,71%
same,activity against the cell line,SW620 Colon carcinoma,considerable activity
same,% Survival with 40 μg/ml TRAXO,MDA-MB-231 Breast cancer,70% and 103% and 106%
same,activity against the cell line,G-292 Osteosarcoma,considerable activity
same,% Survival with 40 μg/ml TRAXO,Panc1 Pancreatic cancer [1],100%
same,% Survival with 40 μg/ml TRAXO,CRO1A Carcinoid,87% and 104% and 70%
same,% Survival with 40 μg/ml TRAXO,[2],92% and 83%
same,% Survival with 40 μg/ml TRAXO,Fib3 Fibroblasts,91%
same,% Survival with 40 μg/ml TRAXO,K562 Leukemia,97%
same,% Survival with 40 μg/ml TRAXO,"[3]; WI-38, 40 μg/ml",21%
same,activity against the cell line,[3]; WI-38 embryonic pulmonary fibroblast cell line,considerable activity
same,% Survival with 40 μg/ml TRAXO,COLO 205 Colon carcinoma,109%
same,% Survival with 40 μg/ml TRAXO,HCT-15 Colon carcinoma [4],100%
same,sensitivity of the cell line,T-47D breast cancer,non-sensitive
same,% Survival with 40 μg/ml TRAXO,T-47D breast cancer; 40 μg/ml,101%
same,% Survival with 40 μg/ml TRAXO,"HL-60 Leukemia; HL-60, 40 μg/ml",0.5%
same,activity against the cell line,HL-60 Leukemia; HL-60 leukemia cell line,considerable activity
same,activity against the cell line,HOS Osteosarcoma [5]; HOS osteosarcoma cell line,considerable activity
same,% Survival with 40 μg/ml TRAXO,"HOS Osteosarcoma [5]; HOS, 40 μg/ml",4.3%
same,activity against the cell line,ACHN Renal carcinoma; ACHN renal carcinoma cell line,considerable activity
same,% Survival with 40 μg/ml TRAXO,"ACHN Renal carcinoma; ACHN, 40 μg/ml",48%
same,sensitivity of the cell line,[6],non-sensitive
same,% Survival with 40 μg/ml TRAXO,[6]; 40 μg/ml,106%
"N.N.[Cl-].[Cl-].[OH-].[OH-].[Pt+4] [cis-Oxoplatin, cis-diammoniumdichlorodihydroxoplatinum(IV)]",IC50,HOS Osteosarcoma [7],2.5 µg/mL
same,IC50,SaOS Osteosarcoma,5 µg/mL
same,% Survival,PC3 Prostate; Conc. 5 μg/ml,105.2 ± 10.8%
same,% Survival,PC3 Prostate; Conc. 10 μg/ml,87.4 ± 11.8%
same,% Survival,PC3 Prostate; Conc. 20 μg/ml,56.7 ± 6.3%
same,% Survival,PC3 Prostate; Conc. 40 μg/ml,15.8 ± 2.7%
same,IC50,PC3 Prostate; Table 1,7.5 µg/mL
same,IC50,PC3 Prostate; Table 2,7.5 µg/mL
same,IC50,M607 Melanoma,5 µg/mL
same,IC50,M518 Melanoma,res (res=resistant=non-sensitive or IC50 value cannot be determined at a concentration of up to 40 μg/ml)
same,IC50,Me128 Melanoma,2.5 µg/mL
same,IC50,JVSO Melanoma,10 µg/mL
same,IC50,Panc1 Pancreatic cancer [8],40 µg/mL
same,IC50,"BxPC3 Pancreatic cancer; Table 1, BxPC3 Pancreatic cancer",2.5 µg/mL
same,IC50,"BxPC3 Pancreatic cancer; Table 2, BxPC3 Pancreatic carcinoma",13 µg/mL
same,IC50,"BxPC3 Pancreatic cancer; Table 4, BxPC3 Pancreas, formazan test",26.0 µg/mL
same,IC50,[9],5 µg/mL
same,IC50,HCT8 Colon carcinoma,40 µg/mL
same,IC50,"HT29 Colon carcinoma; Table 1, HT29 Colon carcinoma",20 µg/mL
same,IC50,"HT29 Colon carcinoma; Table 2, HT29 Colon",13.5 µg/mL
same,IC50,"HT29 Colon carcinoma; Table 4, HT29 Colon, formazan test",13.5 µg/mL
same,IC50,HCT-15 Colon carcinoma [10],20 µg/mL
same,IC50,A498 Renal cells,20 µg/mL
same,IC50,C320DM Colon carcinoma,2.5 µg/mL
same,IC50,"Colo205 Colon carcinoma; Table 1, Colo205 Colon carcinoma",res (res=resistant=non-sensitive or IC50 value cannot be determined at a concentration of up to 40 μg/ml)
same,IC50,"Colo205 Colon carcinoma; Table 4, Colo205 Colon, formazan test",29.0 µg/mL
same,IC50,CC1227 Colon carcinoma,10 µg/mL
same,IC50,MCF-7 Breast cancer,5.5 µg/mL
same,IC50,"T47D Breast cancer; Table 1, T47D Breast cancer",2.5 µg/mL
same,IC50,"T47D Breast cancer; Table 2, T47D Breast cancer",3 µg/mL
same,IC50,"T47D Breast cancer; Table 4, T47D Breast, formazan test",2.5 µg/mL
same,IC50,SK-OV3 Ovarian cancer,15 µg/mL
same,IC50,U 373 MG Astrocytoma,15 µg/mL
same,IC50,SK-OV4 Ovarian cancer,16.2 µg/mL
same,IC50,CaCo-2 Colon; Table 2,1.52 µg/mL
same,IC50,"CaCo-2 Colon; Table 4, formazan test",1.52 µg/mL
same,IC50,CRO2B Carcinoid; Table 2,3.0 µg/mL
same,IC50,"CRO2B Carcinoid; Table 4, formazan test",3.0 µg/mL
same,IC50,Du145 Prostate; Table 2,19.0 µg/mL
same,IC50,"Du145 Prostate; Table 4, formazan test",19.0 µg/mL
same,IC50,SW480 Colon; Table 2,8.2 µg/mL
same,IC50,"SW480 Colon; Table 4, formazan test",8.2 µg/mL
same,IC50,"SIM Sarcoma; Table 2, SIM Sarcoma",15.2 µg/mL
same,IC50,"SIM Sarcoma; Table 3, SIM (EFT)",14 µg/mL
same,IC50,EW-7 (EFT),1.25 µg/mL
same,IC50,LAN1 (NB),17 µg/mL
same,IC50,LAN5 (NB),3.5 µg/mL
same,IC50,MDA-MB-435 Breast,16.5 µg/mL
same,IC50,BT20 Breast,3.75 µg/mL
same,IC50 values of these cells (mean ± spread),[11],10.5 ± 6.4 µg/mL
same,IC50 (±SEM) mean value for all cell lines,10 cell lines (Table 4),12.3 ± 3.2 µg/mL
